49 compounds from US20250122173A1, “MODULATORS OF RHO-ASSOCIATED PROTEIN KINASE” (Redx Pharma Limited, priority 2022, published 2025) can be followed below.

In one assay the target is T1, ROCK2 (Homo sapiens, UniProt O75116).
T1 construct: N-terminal 6His-tagged ROCK2 catalytic domain 11-552; 6His (N); purchased Dundee University, UK; host or cells: baculovirus expression system
As to the kind of experiment: ROCK2 inhibition assay (ADP-Glo kinase assay, called ROCK2 binding activity). Type of assay: biochemical. Particulars: 20 μM ATP, 1 hour pre-incubation, read-out: ROCK 2 (IC50 category). Put shortly: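 N-terminal 6His ROCK2 catalytic domain (11-552, baculovirus-expressed; 1.25 nM) was pre-incubated with compound for 1 h (1% DMSO, HEPES pH 7.5). Reaction then ran 1 h with 100 μM long S6 peptide and 20 μM ATP. ADP was quantified by ADP-Glo luminescence, and IC50 was derived from a four-parameter logistic fit and reported in potency bins.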

For another assay, the target named is ROCK1 (Homo sapiens, UniProt Q13464). As to the kind of experiment: ROCK1 inhibition assay (ROCK1 binding activity, as determined by the assay described for ROCK2). Type of assay: biochemical. Particulars: read-out: ROCK 1 (IC50 category). Put shortly: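 Run under the conditions used for ROCK2: 1 h compound–kinase preincubation, then 1 h reaction with 100 μM long S6 peptide and 20 μM ATP in 50 mM HEPES pH 7.5, 1% DMSO. ADP quantified by ADP-Glo luminescence; IC50 from four-parameter logistic fit, reported in potency categories.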
ROCK1, sequence (Q13464 whole entry): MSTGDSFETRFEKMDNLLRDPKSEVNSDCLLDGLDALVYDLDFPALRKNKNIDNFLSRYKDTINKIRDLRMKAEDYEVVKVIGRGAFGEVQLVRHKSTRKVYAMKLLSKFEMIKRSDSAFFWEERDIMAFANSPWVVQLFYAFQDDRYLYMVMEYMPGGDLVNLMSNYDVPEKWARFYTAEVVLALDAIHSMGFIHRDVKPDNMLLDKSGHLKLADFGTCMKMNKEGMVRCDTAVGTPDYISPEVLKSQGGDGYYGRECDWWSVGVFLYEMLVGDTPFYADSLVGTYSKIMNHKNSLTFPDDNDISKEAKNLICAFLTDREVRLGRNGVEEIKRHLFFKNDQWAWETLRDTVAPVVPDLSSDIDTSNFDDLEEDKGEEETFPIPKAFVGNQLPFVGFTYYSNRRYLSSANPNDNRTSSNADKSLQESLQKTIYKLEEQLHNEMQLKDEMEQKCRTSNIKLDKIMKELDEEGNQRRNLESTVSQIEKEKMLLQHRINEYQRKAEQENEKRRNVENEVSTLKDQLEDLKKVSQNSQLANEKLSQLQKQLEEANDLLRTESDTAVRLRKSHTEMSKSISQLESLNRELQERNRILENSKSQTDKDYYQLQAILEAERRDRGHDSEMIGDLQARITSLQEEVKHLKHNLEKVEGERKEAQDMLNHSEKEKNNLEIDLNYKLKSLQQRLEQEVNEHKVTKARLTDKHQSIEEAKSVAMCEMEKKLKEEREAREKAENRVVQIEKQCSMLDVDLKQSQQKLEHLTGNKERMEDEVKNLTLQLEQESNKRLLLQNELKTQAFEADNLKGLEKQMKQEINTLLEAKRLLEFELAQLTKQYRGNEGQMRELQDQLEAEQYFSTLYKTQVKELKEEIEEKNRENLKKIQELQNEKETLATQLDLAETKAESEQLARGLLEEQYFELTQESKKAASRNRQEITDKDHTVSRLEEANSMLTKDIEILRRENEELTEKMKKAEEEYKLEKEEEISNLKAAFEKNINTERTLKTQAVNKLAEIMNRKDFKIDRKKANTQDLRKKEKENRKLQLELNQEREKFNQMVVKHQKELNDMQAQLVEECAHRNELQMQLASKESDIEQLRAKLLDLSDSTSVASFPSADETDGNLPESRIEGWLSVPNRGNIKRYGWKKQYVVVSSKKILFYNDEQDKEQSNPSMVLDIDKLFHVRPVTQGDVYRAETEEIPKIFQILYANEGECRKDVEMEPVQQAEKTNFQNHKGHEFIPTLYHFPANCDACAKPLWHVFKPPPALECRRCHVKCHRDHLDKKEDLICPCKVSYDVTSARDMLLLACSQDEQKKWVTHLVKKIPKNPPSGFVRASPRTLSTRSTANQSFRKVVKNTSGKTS

T1 sequence (O75116 11-552): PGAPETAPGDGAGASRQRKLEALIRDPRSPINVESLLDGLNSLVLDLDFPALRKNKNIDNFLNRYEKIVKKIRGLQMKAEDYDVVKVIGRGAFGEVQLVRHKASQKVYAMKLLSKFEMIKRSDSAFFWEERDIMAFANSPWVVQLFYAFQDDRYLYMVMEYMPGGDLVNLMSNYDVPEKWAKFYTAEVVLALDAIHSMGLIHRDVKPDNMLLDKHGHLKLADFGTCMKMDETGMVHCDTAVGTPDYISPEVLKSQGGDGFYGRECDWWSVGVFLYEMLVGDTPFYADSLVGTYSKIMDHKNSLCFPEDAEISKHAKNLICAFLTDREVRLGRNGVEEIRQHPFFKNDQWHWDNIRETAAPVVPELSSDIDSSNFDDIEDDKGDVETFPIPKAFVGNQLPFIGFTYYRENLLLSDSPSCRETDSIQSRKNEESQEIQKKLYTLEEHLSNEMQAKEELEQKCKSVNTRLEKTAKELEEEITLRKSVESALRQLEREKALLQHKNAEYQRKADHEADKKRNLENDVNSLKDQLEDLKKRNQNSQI

Usually IC50 stands for the concentration that gives 50% inhibition. As for `CCn1nc(-c2ccc(-c3cn(C)c(C4CC4)n3)c(F)c2)nc1Nc1ccc2c(c1)C(C)NC2=O` (centres unmarked) [Example 108], the values for the IC50 at ROCK2 and at ROCK1 were below 0.3 µM and 3 to 10 µM, respectively.
As for `CCn1nc(-c2cc(C)c(-c3ccc(C4CC4)cn3)cc2F)nc1Nc1cc2c(cc1C)C(=O)NC2C` (centres unmarked) [Example 109], the IC50 at ROCK2 was below 0.3 µM; at ROCK1, 3 to 10 µM.
With `CCn1nc(-c2ccc(-c3ccc(C)nc3)nc2)nc1Nc1ccc2c(c1)C(C)NC2=O` (centres unmarked) [Example 110], the half-inhibitory concentration (IC50) was below 0.3 µM on ROCK2 and above 10 µM at ROCK1.
The corresponding values for `CCn1nc(-c2cc(C)c(-c3ccc(C4CC4)nc3)cc2C)nc1Nc1ccc2c(c1)C(C)NC2=O` (centres unmarked) [Example 111] are below 0.3 µM and above 10 µM.
The corresponding values for `CCn1nc(-c2ccc(-c3ccc(C4CC4)cn3)c(C)c2)nc1Nc1ccc2c(c1)C(C)NC2=O` (centres unmarked) [Example 112] are below 0.3 µM and above 10 µM.
The corresponding values for `CCn1nc(-c2cc(C)c(-c3cn(C)c(C4CC4)n3)cc2F)nc1Nc1ccc2c(c1)C(C)NC2=O` (centres unmarked) [Example 113] are below 0.3 µM and 3 to 10 µM.
As for `CCn1nc(-c2cc(C)c(-c3ccc(C4CC4)cn3)cc2C)nc1Nc1cc2c(cc1C)C(=O)NC2C` (centres unmarked) [Example 114], the half-maximal inhibitory concentration (IC50) on ROCK2 was below 0.3 µM; on ROCK1 it was above 10 µM.
On the same counts, the results for `CCn1nc(-c2ccc(-c3ccc(C)nc3)c(C(=O)OC)c2)nc1Nc1cc2c(cc1C)C(=O)NC2C` (centres unmarked) [Example 115] are below 0.3 µM and above 10 µM.
The corresponding values for `CCn1nc(-c2ccc(C3=CCN(C)CC3)cc2)nc1Nc1cc2c(cc1C)C(=O)NC2C` (centres unmarked) [Example 116] are 3 to 10 µM and above 10 µM.
For `CCn1nc(-c2ccc(C3=CCN(C)CC3)cc2C)nc1Nc1cc2c(cc1C)C(=O)NC2C` (centres unmarked) [Example 117], the results for the IC50 at ROCK2 and on ROCK1 were 0.3 to 3 µM and above 10 µM, respectively.
On the same counts, the results for `CCn1nc(-c2ccc(C3=CCN(CC(F)(F)F)C3)c(C)c2)nc1Nc1cc2c(cc1C)C(=O)NC2C` (centres unmarked) [Example 118] are below 0.3 µM and above 10 µM.
Consider `CCn1nc(-c2ccc(-c3ccc(C)nc3)c(C(C)(C)O)c2)nc1Nc1cc2c(cc1C)C(=O)NC2C` (centres unmarked) [Example 119], for which the IC50 was 0.3 to 3 µM on ROCK2 and above 10 µM at ROCK1.
As for `CCn1nc(-c2cc(C)c(-c3ccc(C)cn3)cc2F)nc1Nc1cc2c(cc1C)C(=O)NC2C` (centres unmarked) [Example 120], the IC50 was below 0.3 µM at ROCK2 and above 10 µM at ROCK1.
On the same counts, the results for `CCn1nc(-c2cnc(-c3ccc(C4CC4)nc3)c(C)c2)nc1Nc1cc2c(cc1C)C(=O)NC2C` (centres unmarked) [Example 121] are below 0.3 µM and above 10 µM.
The corresponding values for `CCn1nc(-c2ccc(-c3cn(C)c(C4CC4)n3)cc2C)nc1Nc1cc2c(cc1C)C(=O)NC2C` (centres unmarked) [Example 122] are below 0.3 µM and 3 to 10 µM.
The corresponding values for `CCn1nc(-c2ccc(C3CCN(CC(F)(F)F)CC3)cc2)nc1Nc1cc2c(cc1C)C(=O)NC2C` (centres unmarked) [Example 123] are 0.3 to 3 µM and above 10 µM.
On to `CCn1nc(-c2ccc(-c3ccn(CC(F)(F)F)c3)cc2)nc1Nc1cc2c(cc1C)C(=O)NC2C` (centres unmarked) [Example 124], for which the half-maximal inhibitory concentration (IC50) was below 0.3 µM on ROCK2 and 3 to 10 µM on ROCK1.
The corresponding values for `CCn1nc(-c2ccc(-c3ccc(C)nc3)c(C(C)=O)c2)nc1Nc1cc2c(cc1C)C(=O)NC2C` (centres unmarked) [Example 125] are below 0.3 µM and above 10 µM.
Consider `CCn1nc(-c2ccc(-n3cnc(C4CC4)c3)cc2C)nc1Nc1cc2c(cc1C)C(=O)NC2C` (centres unmarked) [Example 126], for which the IC50 at ROCK2 is below 0.3 µM; on ROCK1, 3 to 10 µM.
The corresponding values for `CCn1nc(-c2ccc(C3CCN(C(C)C(F)(F)F)CC3)cc2)nc1Nc1cc2c(cc1C)C(=O)NC2C` (centres unmarked) [Example 127] are 0.3 to 3 µM and 0.3 to 3 µM.
On the same counts, the results for `CCn1nc(-c2ccc(C3CCN(C)CC3)cc2C)nc1Nc1cc2c(cc1C)C(=O)NC2C` (centres unmarked) [Example 128] are above 10 µM and above 10 µM.
The corresponding values for `CCn1nc(-c2ccc(-c3ccn(C)c3)c(C)c2)nc1Nc1cc2c(cc1C)C(=O)NC2C` (centres unmarked) [Example 129] are below 0.3 µM and 3 to 10 µM.
`CCn1nc(-c2ccc(-c3ccc(C4CC4)nc3)cc2)nc1Nc1cc2c(cc1F)C(=O)NC2C` (centres unmarked) [Example 130]: the values for the IC50 on ROCK2 and at ROCK1 were below 0.3 µM and 3 to 10 µM, respectively.
As to `CCn1nc(-c2ccc(C3CCN(CC(F)(F)F)CC3)cc2C)nc1Nc1cc2c(cc1C)C(=O)NC2C` (centres unmarked) [Example 131], the figures for the IC50 on ROCK2 and at ROCK1 were below 0.3 µM and above 10 µM, respectively.
For the compound `CCn1nc(-c2ccc(-c3ccc(C)nc3)cc2F)nc1Nc1cc2c(cc1C)C(=O)NC2C` (centres unmarked) [Example 132], the half-inhibitory concentration (IC50) at ROCK2 was below 0.3 µM; at ROCK1, 3 to 10 µM.
With `CCn1nc(-c2cc(C)c(-c3ccc(C)cn3)cc2C)nc1Nc1ccc2c(c1)C(C)NC2=O` (centres unmarked) [Example 133], the half-maximal inhibitory concentration (IC50) is below 0.3 µM at ROCK2 and above 10 µM on ROCK1.
The corresponding values for `CCn1nc(-c2cc(C)c(-c3ccc(C4CC4)cn3)cc2F)nc1Nc1ccc2c(c1)C(C)NC2=O` (centres unmarked) [Example 134] are below 0.3 µM and above 10 µM.
The corresponding values for `CCn1nc(-c2cc(C)c(-c3ccc(C4CC4)cn3)cc2C)nc1Nc1ccc2c(c1)C(C)NC2=O` (centres unmarked) [Example 135] are below 0.3 µM and above 10 µM.
For `CCn1nc(-c2ccc(-c3ccn(C)c3)cc2)nc1Nc1cc2c(cc1C)C(=O)NC2C` (centres unmarked) [Example 136], the IC50 was below 0.3 µM at ROCK2 and 3 to 10 µM on ROCK1.
On the same counts, the results for `CCn1nc(-c2ccc(-c3ccc(C4CC4)cn3)nc2)nc1Nc1cc2c(cc1C)C(=O)NC2C` (centres unmarked) [Example 137] are below 0.3 µM and 0.3 to 3 µM.
The corresponding values for `CCn1nc(-c2ccc(C3CCN(CC(F)(F)F)C3)c(C)c2)nc1Nc1cc2c(cc1C)C(=O)NC2C` (centres unmarked) [Example 138] are below 0.3 µM and above 10 µM.
On the same counts, the results for `CCn1nc(-c2ccc(-c3ccn(CC(F)(F)F)c3)c(C)c2)nc1Nc1cc2c(cc1C)C(=O)NC2C` (centres unmarked) [Example 139] are below 0.3 µM and 0.3 to 3 µM.
Regarding `CCn1nc(-c2ccc(C3CCCN(C)C3)c(C)c2)nc1Nc1cc2c(cc1C)C(=O)NC2C` (centres unmarked) [Example 140], the IC50 on ROCK2 and on ROCK1 was above 10 µM in each case.
As to `CCn1nc(-c2ccc(C3CCNCC3)c(C)c2)nc1Nc1cc2c(cc1C)C(=O)NC2C` (centres unmarked) [Example 141], the concentration for half-maximal inhibition (IC50) on ROCK2 is 3 to 10 µM; on ROCK1 it was above 10 µM.
Regarding `CCn1nc(-c2ccc(C3CCN(C)CC3)cc2)nc1Nc1cc2c(cc1C)C(=O)NC2C` (centres unmarked) [Example 142], the IC50 at ROCK2 and on ROCK1 was above 10 µM each time.
`CCn1nc(-c2ccc(C3CCCN(CC(F)(F)F)C3)cc2)nc1Nc1cc2c(cc1F)C(=O)NC2C` (centres unmarked) [Example 143]: the half-inhibitory concentration (IC50) is 0.3 to 3 µM at ROCK2 and above 10 µM on ROCK1.
The corresponding values for `CCn1nc(-c2ccc(C3CCN(C)CC3)c(C)c2)nc1Nc1cc2c(cc1C)C(=O)NC2C` (centres unmarked) [Example 144] are above 10 µM and above 10 µM.
On the same counts, the results for `CCn1nc(-c2ccc(C3CCC(C)NC3)c(C)c2)nc1Nc1cc2c(cc1C)C(=O)NC2C` (centres unmarked) [Example 145, 5-[[2-ethyl-5-[3-methyl-4-(6-methyl-3-piperidyl)phenyl]-1,2,4-triazol-3-yl]amino]-3,6-dimethyl-isoindolin-1-one] are 3 to 10 µM and above 10 µM.
On the same counts, the results for `CCn1nc(-c2ccc(C3CCN(CC(F)(F)F)CC3)cc2)nc1Nc1cc2c(cc1F)C(=O)NC2C` (centres unmarked) [Example 146] are 0.3 to 3 µM and above 10 µM.
Consider `CCn1nc(-c2ccc(C3CCCN(CC(F)(F)F)C3)c(C)c2)nc1Nc1cc2c(cc1C)C(=O)NC2C` (centres unmarked) [Example 147], for which the half-inhibitory concentration (IC50) at ROCK2 is 0.3 to 3 µM; on ROCK1 it was above 10 µM.
On the same counts, the results for `CCn1nc(-c2ccc(C3CCC(C)NC3)cc2)nc1Nc1cc2c(cc1C)C(=O)NC2C` (centres unmarked) [Example 148] are above 10 µM and above 10 µM.
With `CCn1nc(-c2ccc(-c3ccc(C)nc3)cc2C)nc1Nc1cc2c(cc1F)C(=O)NC2C` (centres unmarked) [Example 149], the 50% inhibitory concentration (IC50) at ROCK2 was below 0.3 µM; at ROCK1 it was above 10 µM.
The corresponding values for `CCn1nc(-c2ccc(-c3ccc(C)nc3)cc2C)nc1Nc1cc2c(cc1C)C(=O)NC2C` (centres unmarked) [Example 150] are below 0.3 µM and 3 to 10 µM.
On the same counts, the results for `CCn1nc(-c2ccc(C3CCCN(C)C3)cc2)nc1Nc1cc2c(cc1C)C(=O)NC2C` (centres unmarked) [Example 151] are above 10 µM and above 10 µM.
`CCn1nc(-c2ccc(-c3cnn(CC(F)(F)F)c3)cc2)nc1Nc1cc2c(cc1C)C(=O)NC2C` (centres unmarked) [Example 152]: the IC50 on ROCK2 was below 0.3 µM; at ROCK1, 3 to 10 µM.
The corresponding values for `CCn1nc(-c2ccc(-c3cnn(CC(F)(F)F)c3)cc2C)nc1Nc1cc2c(cc1C)C(=O)NC2C` (centres unmarked) [Example 153] are below 0.3 µM and 0.3 to 3 µM.
On the same counts, the results for `CCn1nc(-c2ccc(-c3ccc(C(C)(C)O)nc3)c(C)c2)nc1Nc1cc2c(cc1C)C(=O)NC2C` (centres unmarked) [Example 154] are below 0.3 µM and 0.3 to 3 µM.
For the compound `CCn1nc(-c2ccc(C3CCC(C)NC3)cc2C)nc1Nc1cc2c(cc1C)C(=O)NC2C` (centres unmarked) [Example 155], the IC50 at ROCK2 is 3 to 10 µM; on ROCK1, above 10 µM.
On the same counts, the results for `CCn1nc(-c2ccc(-c3ccc(C4CC4)nc3)c(C)c2)nc1Nc1cc2c(cc1C)C(=O)NC2C` (centres unmarked) [Example 156] are 0.3 to 3 µM and above 10 µM.
